These results are taken from patent publication US5843889A, “Glycopeptide antibiotic derivatives” (Eli Lilly and Company, priority 1997, dated 1998).

Values after ≈ are worked out from the molar mass of the structure shown.

What all share (format): cell-based
Assay [1] concerns Pedicoccus acidilacti. Description: MIC, agar dilution on brain-heart infusion agar. The note with it: Pedioccccus acidilacti (mean of 10).
The subject of assay [2] is Pediococcus pentosaceus. Description: MIC, agar dilution on brain-heart infusion agar. The following applies: Pediococcus pentosaceus (mean of 2). For orientation: In agar dilution the substance is mixed into plates at graded concentrations.
For assay [3], the system named is Leuconostoc mesenteroides. Description: MIC, agar dilution on brain-heart infusion agar. The note with it: Leuconostoc mesenteroides (mean of 4).
In assay [4] the test system is Entercoccus gallinarum 245. Description: MIC, standard broth micro-dilution assay. On the procedure:
(§1) The formula I compounds have in vitro and in vivo activity against Gram-positive pathogenic bacteria. The MIC's were determined using a standard broth micro-dilution assay.

Assay [5] relates to Entercoccus faecalis 276. Description: MIC, standard broth micro-dilution assay. On the procedure:
as §1
Background: Dilution methods test growth across graded concentrations, often in twofold steps.

Assay [6] concerns Entercoccus faecalis 2041. Description: MIC, standard broth micro-dilution assay. Here is the method: as §1
The test system of assay [7] is Leuconostoc lactis. Description: MIC, agar dilution on brain-heart infusion agar. The following applies: Leuconostoc lactis (mean of 2).
In assay [8] the test system is Lactobacillus confusus. Description: MIC, agar dilution on brain-heart infusion agar.
Assay [9] deals with Leuconostoc pseudomesenteroides. Description: MIC, agar dilution on brain-heart infusion agar.
The test system of assay [10] is Streptococcus pneumoniae P1. Description: MIC, standard broth micro-dilution assay. On the procedure: (§2) The MIC's were determined using a standard broth micro-dilution assay.
Assay [11] relates to Staphylococcus aureus X400. Description: MIC, standard broth micro-dilution assay. Here is the method: as §2
Assay [12] deals with Haemophilus influenzae RD. Description: MIC, standard broth micro-dilution assay. Here is the method: as §2
Assay [13] concerns Staphylococcus haemolyticus 415. Description: MIC, standard broth micro-dilution assay. Here is the method: as §2
Assay [14] concerns Staphylococcus aureus 489. Description: MIC, standard broth micro-dilution assay. Here is the method: as §2
Assay [15] concerns Escherichia coli EC14. Description: MIC, standard broth micro-dilution assay. On the procedure:
as §2

Assay [16] deals with Entercoccus faecium 180. Description: MIC, standard broth micro-dilution assay. Here is the method: as §2
Assay [17] relates to Staphylococcus aureus 491. Description: MIC, standard broth micro-dilution assay. On the procedure: as §2
The subject of assay [18] is Staphylococcus aureus SA1199. Description: MIC, standard broth micro-dilution assay. On the procedure: as §2
Assay [19] relates to Entercoccus faecium 180-1. Description: MIC, standard broth micro-dilution assay. On the procedure:
as §2

The subject of assay [20] is Staphylococcus aureus X778. Description: MIC, standard broth micro-dilution assay. Here is the method: as §2
The subject of assay [21] is Staphylococcus epidermidis 270. Description: MIC, standard broth micro-dilution assay. Here is the method: as §2
The subject of assay [22] is Staphylococcus aureus 446. Description: MIC, standard broth micro-dilution assay. On the procedure: as §2
For assay [23], the system named is Staphylococcus haemolyticus 105. Description: MIC, standard broth micro-dilution assay. Here is the method: as §2
Assay [24] relates to Staphylococcus aureus SA1199A. Description: MIC, standard broth micro-dilution assay. Here is the method:
as §2

The subject of assay [25] is Staphylococcus aureus 447. Description: MIC, standard broth micro-dilution assay. Here is the method: as §2
Assay [26] has as its system Staphylococcus aureus S13E. Here is the method: as §2
Assay [27] has as its system Staphylococcus aureus SA1199B. On the procedure: as §2

Take `CNC(CC(C)C)C(=O)NC1C(=O)NC(CC(N)=O)C(=O)NC2C(=O)NC3C(=O)NC(C(=O)NC(C(=O)O)c4cc(O)cc(O)c4-c4cc3ccc4O)C(OC3CC(C)(N)C(O)C(C)O3)c3ccc(c(Cl)c3)Oc3cc2cc(c3OC2OC(CO)C(O)C(O)C2OC2CC(C)(NCc3ccc(Sc4ccccc4)cc3)C(O)C(C)O2)Oc2ccc(cc2Cl)C1O` (stereo not drawn) [Compound 108, 4-thiophenylbenzyl]: the MIC in assay [1] was 12 µg/mL (≈ 6.7 µM); in assay [2], 23 µg/mL (≈ 12.8 µM); in assay [3] it was 10 µg/mL (≈ 5.58 µM); in assay [4] it was no more than 0.06 µg/mL; in assay [5], 0.5 µg/mL (≈ 0.279 µM); in assay [6], no more than 0.06 µg/mL. In addition, the MIC in assay [7] came out at 8.0 µg/mL (≈ 4.47 µM); in [8], 16 µg/mL (≈ 8.93 µM); in assay [9] it was 32 µg/mL (≈ 17.9 µM).
As for `CNC(CC(C)C)C(=O)NC1C(=O)NC(CC(N)=O)C(=O)NC2C(=O)NC3C(=O)NC(C(=O)NC(C(=O)O)c4cc(O)cc(O)c4-c4cc3ccc4O)C(OC3CC(C)(N)C(O)C(C)O3)c3ccc(c(Cl)c3)Oc3cc2cc(c3OC2OC(CO)C(O)C(O)C2OC2CC(C)(NCc3ccc(OC(F)(F)F)cc3)C(O)C(C)O2)Oc2ccc(cc2Cl)C1O` (stereo not drawn) [Compound 6, 4-trifluoromethoxybenzyl], the MIC in assay [1] was 4.3 µg/mL (≈ 2.43 µM); in assay [2], 8.0 µg/mL (≈ 4.53 µM); in assay [3], 9.5 µg/mL (≈ 5.38 µM); in assay [4] it was no more than 0.06 µg/mL; in assay [6], no more than 0.06 µg/mL; in [7], 8.0 µg/mL (≈ 4.53 µM). For the same molecule, the MIC in assay [8] and in assay [9] was 16 µg/mL (≈ 9.06 µM) each time.
For `CNC(CC(C)C)C(=O)NC1C(=O)NC(CC(N)=O)C(=O)NC2C(=O)NC3C(=O)NC(C(=O)NC(C(=O)O)c4cc(O)cc(O)c4-c4cc3ccc4O)C(OC3CC(C)(N)C(O)C(C)O3)c3ccc(c(Cl)c3)Oc3cc2cc(c3OC2OC(CO)C(O)C(O)C2OC2CC(C)(NCc3ccc(C(c4ccccc4)c4ccccc4)cc3)C(O)C(C)O2)Oc2ccc(cc2Cl)C1O` (stereo not drawn) [Compound 46, 4-diphenylmethylbenzyl], the MIC in assay [10] is no more than 0.06 µg/mL; in [11] it was 2 µg/mL (≈ 1.08 µM); in assay [12] it was greater than 64 µg/mL; in assay [13], 2 µg/mL (≈ 1.08 µM); in [14], 1 µg/mL (≈ 0.541 µM); in assay [15], greater than 64 µg/mL. Besides, the MIC in assay [16] is 0.5 µg/mL (≈ 0.27 µM); in [17] it was 2 µg/mL (≈ 1.08 µM); in assay [18], 2 µg/mL (≈ 1.08 µM); in assay [19] it was no more than 0.06 µg/mL; in assay [20] it was 2 µg/mL (≈ 1.08 µM); in [21], 2 µg/mL (≈ 1.08 µM). The MIC was 1 µg/mL (≈ 0.541 µM) in assay [22]; 2 µg/mL (≈ 1.08 µM) in assay [23]; 0.5 µg/mL (≈ 0.27 µM) in [24]; 2 µg/mL (≈ 1.08 µM) in assay [25]; 2 µg/mL (≈ 1.08 µM) in [26]; 2 µg/mL (≈ 1.08 µM) in [27]. The MIC in [4] was found to be 0.25 µg/mL (≈ 0.135 µM); in assay [5], 0.5 µg/mL (≈ 0.27 µM); in assay [6], 1 µg/mL (≈ 0.541 µM).
As to `CNC(CC(C)C)C(=O)NC1C(=O)NC(CC(N)=O)C(=O)NC2C(=O)NC3C(=O)NC(C(=O)NC(C(=O)O)c4cc(O)cc(O)c4-c4cc3ccc4O)C(OC3CC(C)(N)C(O)C(C)O3)c3ccc(c(Cl)c3)Oc3cc2cc(c3OC2OC(CO)C(O)C(O)C2OC2CC(C)(NCc3cccc(Oc4ccccc4)c3)C(O)C(C)O2)Oc2ccc(cc2Cl)C1O` (stereo not drawn) [Compound 49, 3-phenoxybenzyl], the MIC in assay [1] was 55 µg/mL (≈ 31 µM); in [10], no more than 0.06 µg/mL; in [11], 0.125 µg/mL (≈ 0.0704 µM); in assay [12], greater than 64 µg/mL; in [13], 1 µg/mL (≈ 0.563 µM); in assay [14], no more than 0.06 µg/mL. Also, the MIC was greater than 64 µg/mL in assay [15]; 0.25 µg/mL (≈ 0.141 µM) in assay [16]; 0.125 µg/mL (≈ 0.0704 µM) in assay [17]; 2 µg/mL (≈ 1.13 µM) in assay [18]; no more than 0.06 µg/mL in assay [19]; no more than 0.06 µg/mL in [20]. The MIC in assay [21] was 1 µg/mL (≈ 0.563 µM); in assay [22], 0.5 µg/mL (≈ 0.282 µM); in assay [23], 1 µg/mL (≈ 0.563 µM); in assay [24], no more than 0.06 µg/mL; in assay [25], 1 µg/mL (≈ 0.563 µM); in assay [26], no more than 0.06 µg/mL. Moreover, the MIC in assay [27] was 1 µg/mL (≈ 0.563 µM); in assay [2], 64 µg/mL (≈ 36.1 µM); in assay [3], 64 µg/mL (≈ 36.1 µM); in assay [4], 1 µg/mL (≈ 0.563 µM); in assay [5], 0.25 µg/mL (≈ 0.141 µM); in assay [6], no more than 0.06 µg/mL. Besides, the MIC in [7] and in assay [8] was 64 µg/mL (≈ 36.1 µM) in each case.
Regarding `CNC(CC(C)C)C(=O)NC1C(=O)NC(CC(N)=O)C(=O)NC2C(=O)NC3C(=O)NC(C(=O)NC(C(=O)O)c4cc(O)cc(O)c4-c4cc3ccc4O)C(OC3CC(C)(N)C(O)C(C)O3)c3ccc(c(Cl)c3)Oc3cc2cc(c3OC2OC(CO)C(O)C(O)C2OC2CC(C)(NCC3CC=CCC3)C(O)C(C)O2)Oc2ccc(cc2Cl)C1O` (stereo not drawn) [Compound 47, 3,4 cyclohexenylmethyl], the MIC in assay [10] is no more than 0.06 µg/mL; in assay [11], no more than 0.06 µg/mL; in assay [12], greater than 64 µg/mL; in assay [13], 16 µg/mL (≈ 9.49 µM); in assay [14], no more than 0.06 µg/mL; in assay [15] it was greater than 64 µg/mL. In addition, the MIC in assay [16] was 2 µg/mL (≈ 1.19 µM); in assay [17] it was 0.5 µg/mL (≈ 0.296 µM); in assay [18], 0.5 µg/mL (≈ 0.296 µM); in assay [19] it was no more than 0.06 µg/mL; in assay [20], no more than 0.06 µg/mL; in assay [21], 1 µg/mL (≈ 0.593 µM). Also, the MIC in assay [22] is 0.125 µg/mL (≈ 0.0741 µM); in assay [23], 4 µg/mL (≈ 2.37 µM); in [24], 0.25 µg/mL (≈ 0.148 µM); in assay [25] it was 2 µg/mL (≈ 1.19 µM); in assay [26], no more than 0.06 µg/mL; in [27], 0.25 µg/mL (≈ 0.148 µM). In addition, the MIC in assay [4] was 16 µg/mL (≈ 9.49 µM); in [5], no more than 0.06 µg/mL; in assay [6], no more than 0.06 µg/mL.
With `CNC(CC(C)C)C(=O)NC1C(=O)NC(CC(N)=O)C(=O)NC2C(=O)NC3C(=O)NC(C(=O)NC(C(=O)O)c4cc(O)cc(O)c4-c4cc3ccc4O)C(OC3CC(C)(N)C(O)C(C)O3)c3ccc(c(Cl)c3)Oc3cc2cc(c3OC2OC(CO)C(O)C(O)C2OC2CC(C)(NCc3ccc(-c4ccccc4)cc3)C(O)C(C)O2)Oc2ccc(cc2Cl)C1O` (stereo not drawn) [Compound 2, p-phenylbenzyl.cndot.A82846B], the MIC is 5.9 µg/mL (≈ 3.35 µM) in assay [1]; 11 µg/mL (≈ 6.25 µM) in [2]; 16 µg/mL (≈ 9.1 µM) in [3]; no more than 0.06 µg/mL in assay [4]; 0.5 µg/mL (≈ 0.284 µM) in [5]; 4.0 µg/mL (≈ 2.27 µM) in assay [7]. The MIC is 16 µg/mL (≈ 9.1 µM) in assay [8] and 32 µg/mL (≈ 18.2 µM) in assay [9].
Regarding `CNC(CC(C)C)C(=O)NC1C(=O)NC(CC(N)=O)C(=O)NC2C(=O)NC3C(=O)NC(C(=O)NC(C(=O)O)c4cc(O)cc(O)c4-c4cc3ccc4O)C(OC3CC(C)(N)C(O)C(C)O3)c3ccc(c(Cl)c3)Oc3cc2cc(c3OC2OC(CO)C(O)C(O)C2OC2CC(C)(NCc3ccc4c(c3)OCO4)C(O)C(C)O2)Oc2ccc(cc2Cl)C1O` (stereo not drawn) [Compound 48, 3,4-methylenedioxylbenzyl], the MIC in assay [10] was no more than 0.06 µg/mL; in assay [11], no more than 0.06 µg/mL; in [12] it was greater than 64 µg/mL; in assay [13], 8 µg/mL (≈ 4.63 µM); in [14] it was no more than 0.06 µg/mL; in assay [15], greater than 64 µg/mL. The MIC is 1 µg/mL (≈ 0.579 µM) in [16]; 0.25 µg/mL (≈ 0.145 µM) in assay [17]; 0.25 µg/mL (≈ 0.145 µM) in [18]; no more than 0.06 µg/mL in assay [19]; no more than 0.06 µg/mL in assay [20]; 1 µg/mL (≈ 0.579 µM) in assay [21]. For the same molecule, the MIC is 0.125 µg/mL (≈ 0.0724 µM) in assay [22]; 2 µg/mL (≈ 1.16 µM) in [23]; no more than 0.06 µg/mL in assay [24]; 2 µg/mL (≈ 1.16 µM) in [25]; no more than 0.06 µg/mL in assay [26]; 1 µg/mL (≈ 0.579 µM) in assay [27]. Besides, the MIC in assay [4] was 1 µg/mL (≈ 0.579 µM); in assay [5] it was no more than 0.06 µg/mL; in [6], no more than 0.06 µg/mL.
